This note sets out measurements from patent publication US11827628B2, “Compositions and methods for inhibition of the JAK pathway” (Rigel Pharmaceuticals, Inc., priority 2005, dated 2023).

For assay [1], the system named is up-regulation of ICAM-1 (CD54) by IFNγ in A549 lung epithelial cells. As to the kind of experiment: A549 Epithelial Line Stimulated with IFNγ (ICAM-1 surface expression, FACS). In kind it is cell-based, human. Conditions: Homo sapiens, A549, A549 cells stimulated with IFNγ, ICAM-1 expression by FACS; read-out: IC50, Example 43. The text has this: The activity of the compounds of the invention may additionally be characterized by assaying the effect of the 2,4-substituted pyrimidinediamine compounds described herein on A549 lung epithelial cells and U937 cells. A549 lung epithelial cells and U937 cells up-regulate ICAM-1 (CD54) surface expression in response to a variety of different stimuli. Therefore, using ICAM-1 expression as readout, test compound effects on different signaling pathways can be assessed in the same cell type. Stimulation with IL-1β through the IL-1β receptor activates the TRAF6/NFκB pathway resulting in up-regulation of ICAM-1. IFNγ induces ICAM-1 up-regulation through activation of the JAK1/JAK2 pathway. The up-regulation of ICAM-1 can be quantified by flow cytometry across a compound dose curve and EC50, values are calculated. An exemplary assays of this type are described in greater detail in Examples 43 and 44
A549 lung epithelial cells up-regulate ICAM-1 (CD54) surface expression in response to a variety of different stimuli. Therefore, using ICAM-1 expression as readout, compound effects on different signaling pathways can be assessed in the same cell type. IFNγ up-regulates ICAM-1 through activation of the JAK/Stat pathway. In this example, the up-regulation of ICAM-1 by IFNγ was assessed.
The A549 lung epithelial carcinoma cell line originated from the American Type Culture Collection. Routine culturing was with F12K media (Mediatech Inc., Lenexa, KS, Cat. No. 10-025-CV) with 10% fetal bovine serum, 100 I.U. penicillin and […] streptomycin (complete F12k media). Cells were incubated in a humidified atmosphere of 5% CO2 at 37° C. Prior to use in the assay, A549 cells were washed with PBS and trypsinized (Mediatech Inc., Cat. No. 25-052-CI) to lift the cells. The trypsin cell suspension was neutralized with complete F12K media and centrifuged to pellet the cells. The cell pellet was resuspended in complete F12K media at a concentration of 2.0×10^5/mL. Cells were seeded at 20,000 per well, 100 μL total volume, in a flat bottom tissue culture plate and allowed to adhere overnight.
On day two, A549 cells were pre-incubated with a 2,4-substituted pyrimidinediamine test compound or DMSO (control) (Sigma-Aldrich, St. Louis, MO, Catalog No. D2650) for 1 hour. The cells were then stimulated with IFNγ (75 ng/mL) (Peprotech Inc., Rocky Hill, NJ, Cat. No. 300-02) and allowed to incubate for 24 hours. The final test compound dose range was 30 μM to 14 nM in 200 μL F12K media containing 5% FBS, 0.3% DMSO.
On day three, the cell media was removed and the cells were washed with 200 μL PBS (phosphate buffered saline). Each well was trypsinized to dissociate the cells, then neutralized by addition of 200 μL complete F12K media. Cells were pelleted and stained with an APC conjugated mouse anti-human ICAM-1 (CD54) (BD Pharmingen, San Diego, CA, Catalog #559771) antibody for 20 minutes at 4° C. Cells were washed with ice cold FACS buffer (PBS+2% FBS) and surface ICAM-1 expression was analyzed by flow cytometry. Detection was performed using a BD LSR I System Flow Cytometer, purchased from BD Biosciences of San Jose, California Events were gated for live scatter and the geometric mean was calculated (Becton-Dickinson CellQuest software version 3.3, Franklin Lakes, NJ). Geometric means were plotted against the compound concentration to generate a dose response curve.
In general terms: Flow cytometry measures light scatter and fluorescence of single cells or particles in a stream.

The test system of a further assay is Primary human T-cells. As to the kind of experiment: Primary Human T-Cell Proliferation Assay Stimulated with IL-2 (CellTiter-Glo). In kind it is cell-based. Conditions: Homo sapiens, T-cell, primary human T-cells stimulated with IL-2, proliferation; read-out: IC50, Example 42. Summed up: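 IC50 derived from CellTiter-Glo ATP signal after 72 hours of IL-2-driven proliferation at 37° C. Cells: primary human T-cells from blood, stimulated beforehand 3-4 days on anti-CD3/anti-CD28 with IL-2, then rested from IL-2 before compound exposure in duplicate; IL-2-free wells served as unstimulated control.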
Background: Cellular ATP, detected with luciferase, serves as a proxy for viable cell number.

Where a name gives a salt, the structure may show the parent alone.

What is called IC50 is the point on the concentration scale where inhibition reaches its midpoint. Regarding `N#CCN1C(=O)COc2ccc(Nc3nc(Nc4cccc(S(N)(=O)=O)c4)ncc3F)cc21` [Compound V-7, N2-(3-Aminosulphonylphenyl)-5-fluoro-N4-(3-oxo-4-cyanomethyl-benz[1,4]oxazin-6-yl]-2,4-pyrimidinediamine], the IC50 in assay [1] is 5000 nM; in the assay on Primary human T-cells, 127 nM.
For `Cc1ccc(Nc2ncc(F)c(Nc3ccc4c(c3)N(CC#N)C(=O)CO4)n2)cc1S(N)(=O)=O` [Compound V-8, N2-(3-Aminosulphonyl-4-methylphenyl)-5-fluoro-N4-[3-oxo-4-cyanomethyl-benz[1,4]oxazin-6-yl]-2,4-pyrimidinediamine], the IC50 in assay [1] worked out at 5210 nM; in the assay on Primary human T-cells, 225 nM.
Turning to `N#CCN1C(=O)CSc2ccc(Nc3nc(Nc4cccc(S(N)(=O)=O)c4)ncc3F)cc21` [Compound V-12, N2-(3-Aminosulphonylphenyl)-5-fluoro-N4-(3-oxo-4-cyanomethyl-benzo[1,4]thiazin-6-yl)-2,4-pyrimidinediamine], the IC50 in assay [1] was 54000 nM; with Primary human T-cells it was 957 nM.
`Cc1ccc(Nc2ncc(F)c(Nc3ccc4c(c3)N(CC#N)C(=O)CS4)n2)cc1S(N)(=O)=O` [Compound V-13, N2-(3-Aminosulphonyl4-methylphenyl)-5-fluoro-N4-(3-oxo-4-cyanomethyl-benzo[1,4]thiazin-6-yl)-2,4-pyrimidinediamine]: the IC50 in assay [1] was 6870 nM; in the assay with Primary human T-cells, 468 nM.
The corresponding values for `NS(=O)(=O)c1cccc(Nc2ncc(F)c(Nc3ccc(Cc4ccncc4)cc3)n2)c1` [III-128, N2-(3-Aminosulfonylphenyl)-5-fluoro-N4-[4-(4-pyridylmethyl)phenyl]-2,4-pyrimidinediamine p-Toluenesulfonic Acid Salt] are 28100 nM and 139 nM.
The matching figures for `NS(=O)(=O)c1cccc(Nc2ncc(F)c(Nc3ccc(-c4cnco4)cc3)n2)c1` [IV-5, N2-(3-Aminosulfonylphenyl)-5-fluoro-N4-[4-(1,3-oxazol-5-yl)phenyl]-2,4-pyrimidinediamine]: 16100 nM and 116 nM.
In the case of `C#CCn1ccc2cc(Nc3nc(Nc4ccc(C)c(S(N)(=O)=O)c4)ncc3F)ccc21` [IX-1, N2-(3-Aminosulfonyl-4-methylphenyl)-5-fluoro-N4-[1-(propyn-3-yl)indol-5-yl]-2,4-pyrimidinediamine], the figures for the IC50 (in assay [1]; in the assay with Primary human T-cells) were 4880 nM and 581 nM, respectively.
As to `N#CCc1c[nH]c2ccc(Nc3nc(Nc4cccc(S(N)(=O)=O)c4)ncc3F)cc12` [IX-13, N2-(3-Aminosulfonylphenyl)-N4-(3-cyanomethyl-1H-indol-5-yl)-5-fluoro-2,4-pyrimidinediamine], the IC50 was 30300 nM in assay [1] and 430 nM in the assay on Primary human T-cells.
Take `Cc1ccc(Nc2ncc(F)c(Nc3ccc4[nH]cc(CC#N)c4c3)n2)cc1S(N)(=O)=O` [IX-14, N2-(3-Aminosulfonyl-4-methylphenyl)-N4-(3-cyanomethyl-1H-indol-5-yl)-5-fluoro-2,4-pyrimidinediamine]: the half-maximal inhibitory concentration (IC50) in assay [1] was found to be 3380 nM; in the assay with Primary human T-cells it was 656 nM.
The corresponding values for `Cc1ccc(Nc2ncc(F)c(Nc3ccc(Cl)c(Cl)c3)n2)cc1S(N)(=O)=O` [VI-6, N2-(3-Aminosulfonyl-4-methylphenyl)-N4-(3,4-dichlorophenyl)-5-fluoro-2,4-pyrimidinediamine] are 15000 nM and 1450 nM.
`COc1cc(Nc2nc(Nc3ccc(Cl)c(S(N)(=O)=O)c3)ncc2F)ccc1Cl` [VI-11, N2-(3-Aminosulfonyl-4-chlorophenyl)-N4-(4-chloro-3-methoxyphenyl)-5-fluoro-2,4-pyrimidinediamine]: the IC50 was 47100 nM in assay [1] and 4620 nM in the assay on Primary human T-cells.
Consider `COc1ccc(Nc2nc(Nc3cc(Cl)c(C)c(S(N)(=O)=O)c3)ncc2F)cc1Cl` [VI-13, N2-(3-Aminosulfonyl-5-chloro-4-methylphenyl)-N4-(3-chloro-4-methoxyphenyl)-5-fluoro-2,4-pyrimidinediamine], for which the values for the IC50 (in assay [1]; with Primary human T-cells) were 8230 nM and 1350 nM, respectively.
On to `COc1ccc(Nc2nc(Nc3cc(C)c(Cl)c(S(N)(=O)=O)c3)ncc2F)cc1Cl` [VI-17, N2-(3-Aminosulfonyl-4-chloro-5-methylphenyl)-N4-(3-chloro-4-methoxyphenyl)-5-fluoro-2,4-pyrimidinediamine], for which the figures for the IC50 (in assay [1]; in the assay with Primary human T-cells) were 6420 nM and 244 nM, respectively.
Turning to `COc1ccc(Nc2nc(Nc3cccc(S(N)(=O)=O)c3)ncc2Br)cc1Cl` [VI-26, N2-(3-aminosulfonylphenyl)-5-bromo-N4-(3-chloro-4-methoxyphenyl)-2,4-pyrimidinediamine], the half-inhibitory concentration (IC50) in assay [1] was 1700 nM; with Primary human T-cells it was 28.9 nM.
On to `COc1c(C)cc(Nc2ncc(F)c(Nc3ccc(C(C)(C)C)cc3)n2)cc1S(N)(=O)=O` [VI-37, N2-(3-Aminosulfonyl-4-methoxy-5-methylphenyl)-N4-(4-tert-butylphenyl)-5-fluoro-2,4-pyrimidinediamine], for which the IC50 in assay [1] came to 12400 nM; in the assay on Primary human T-cells, 1080 nM.
The matching figures for `COc1ccc(Nc2nc(Nc3ccc(C(C)C)c(S(N)(=O)=O)c3)ncc2F)cc1Cl` [VI-45, N2-(3-Aminosulfonyl-4-iso-propylphenyl)-N4-(3-chloro-4-methoxy-phenyl)-5-fluoro-2,4-pyrimidinediamine]: 10500 nM and 1330 nM.
For `Cc1ccc(Nc2ncc(F)c(Nc3ccc(CO)cc3)n2)cc1S(N)(=O)=O` [VI-52, N2-(3-Aminosulfonyl-4-methylphenyl)-5-fluoro-N4-(4-hydroxymethylphenyl)-2,4-pyrimidinediamine], the IC50 was found to be 5920 nM in assay [1] and 162 nM with Primary human T-cells.
Consider `C#CCOc1ccc(Nc2nc(Nc3ccc(C)c(S(N)(=O)=O)c3)ncc2F)cc1` [VI-53, N2-(3-Aminosulfonyl-4-methylphenyl)-5-fluoro-N4-[4-(prop-2-ynyloxy)phenyl]-2,4-pyrimidinediamine], for which the IC50 was determined as 11300 nM in assay [1] and 181 nM in the assay with Primary human T-cells.
With `C=Cc1ccc(Nc2nc(Nc3ccc(C)c(S(N)(=O)=O)c3)ncc2F)cc1` [VI-54, N2-(3-Aminosulfonyl-4-methylphenyl)-5-fluoro-N4-(4-vinylphenyl)-2,4-pyrimidinediamine], the IC50 in assay [1] worked out at 31000 nM; with Primary human T-cells, 967 nM.
Regarding `C#CCOc1ccc(Nc2nc(Nc3ccc(C)c(S(N)(=O)=O)c3)ncc2F)cc1Cl` [VI-59, N2-(3-Aminosulfonyl-4-methylphenyl)-N4-[3-chloro-4-(prop-2-ynyloxy)phenyl]-5-fluoro-2,4-pyrimidinediamine], the figures for the half-inhibitory concentration (IC50) (in assay [1]; in the assay with Primary human T-cells) were 4980 nM and 340 nM, respectively.
The matching figures for `C#CCOc1ccc(Nc2nc(Nc3ccc(C)c(S(N)(=O)=O)c3)ncc2F)cc1F` [VI-60, N2-(3-Aminosulfonyl-4-methylphenyl)-5-fluoro-N4-[3-fluoro-4-(prop-2-ynyloxy)phenyl]-2,4-pyrimidinediamine]: 3850 nM and 187 nM.
For `CC#CCOc1ccc(Nc2nc(Nc3ccc(C)c(S(N)(=O)=O)c3)ncc2F)cc1` [VI-61, N2-(3-Aminosulfonyl-4-methylphenyl)-N4-[4-(but-2-ynyloxy)phenyl]-5-fluoro-2,4-pyrimidinediamine], the values for the IC50 (in assay [1]; with Primary human T-cells) were 3110 nM and 185 nM, respectively.
`C#CCNc1ccc(Nc2nc(Nc3ccc(C)c(S(N)(=O)=O)c3)ncc2F)cc1` [VI-65, N2-(3-Aminosulfonyl-4-methylphenyl)-5-fluoro-N4-[4-(prop-2-ynylamino)phenyl]-2,4-pyrimidinediamine]: the figures for the IC50 (in assay [1]; with Primary human T-cells) were 4130 nM and 209 nM, respectively.
